Measured values from patent US8653046B2, “Controlling transgene expression across the skin” (ETH Zurich, priority 2009, dated 2014).

Key:
CHO-K1 = test: Impact of phloretin on CHO-K1 engineered for constitutive SEAP expression (SEAP production, viable cell density); type: cell-based, Chinese hamster; conditions: 48 h
Experimental: CHO-K1 engineered for constitutive SEAP expression are cultivated in culture medium supplemented with different phloretin concentrations (0-100 μM) and SEAP production (bars) as well as maximum cell density are assessed after 48 h (line). Abbreviations: C.D.: Cell Density (10^6/mL); Phl.: Phloretin (μM)
To evaluate the stability of phloretin in culture medium and assess its impact on mammalian cells, standard ChoMaster® HTS medium is supplemented with increasing concentrations of phloretin (0, 25, 50, 75, 100 μM), and this medium is incubated in the presence and absence of CHO-K1 engineered for constitutive SEAP expression (pSEAP2-Control; PSV40-SEAP-pA, Clontech). […] Phloretin levels determined over a period of 64 h in cell-free culture medium establish a functional half-live of 70 h for this flavonoid.

[1] = target: T1, tetracycline-responsive control system (PSV40-tTA-pA; PhCMV*-1-SAMY-pA) (Escherichia coli, UniProt P04483); test: Compatibility test: tetracycline-responsive (TETOFF) SAMY production in CHO-PEACE8 (pSAM200, pBP99); type: cell-based; conditions: CHO-PEACE8 transiently transfected with tetracycline-responsive control system; Phl 50 μM, Tet 2 μg/mL; 48 h; 100 = no inducer
T1 construct: expressed in transfected cells; host or cells: CHO-PEACE8 transiently transfected with pSAM200 and pBP99
Description: (§1) To evaluate the functional compatibility of PEACE with the established tetracycline— [TETOFF; Gossen M., Bujard H., 1992, Proc Natl Acad Sci USA 89(12):5547-5551] and macrolide— [EOFF; Weber W., et al., 2002, Nat Biotechnol 20(9):901-907] responsive expression circuits CHO-PEACE8 is transiently transfected, transgenic for phloretin-responsive SEAP expression, with either the TETOFF-(pSAM200, PSV40-tTA-pA; pBP99, PhCMV*-1-SAMY-pA) or the EOFF-(PWW35, PSV40-ET1-pA; pBP100, PETR3-SAMY-pA) system set to control the Bacillus stearothermophilus-derived secreted α-amylase (SAMY) in response to tetracycline and erythromycin, respectively. SEAP and SAMY expression are scored 48 h after cultivation of the transfected populations in the presence (50 μM; 2 μg/mL) or absence of the inducer molecules (phloretin, tetracycline, erythromycin).

TtgA1 (TtgR-VP16) = TtgA1 (TtgR-VP16) (Pseudomonas putida, UniProt Q9AIU0); test: Compatibility test: phloretin-responsive SEAP production of CHO-PEACE8; type: cell-based, Pseudomonas putida DOT-T1E; design: expressed in transfected cells; host or cells: CHO-K1 (transient pMG11 or pMG13); also HEK-293, BHK-21, COS-7, HaCaT, HT-1080, NIH/3T3, primary human fibroblasts and keratinocytes; conditions: Phl 50 μM, 48 h, 100 = no inducer
Description: as §1
The stable CHO-PEACE8 cell line, transgenic for phloretin-controlled SEAP expression, is constructed in two steps: (i) CHO-K1 cells are co-transfected with pMG11 (PSV40-TtgA1-pA) and pSV2neo (Clontech, Cat. No. 6172-1) at a ratio of 20:1 and clonal selection results in the cell line CHO-TtgA. (ii) CHO-TtgA is co-transfected with pMG10 (PTtgR1-SEAP-pA) and pPur (Clontech, Cat. No. 6156-1) (ratio of 20:1) and the phloretin-responsive SEAP-producing double-transgenic cell line CHO-PEACE8 is chosen after clonal selection. […] Reversibility of phloretin-mediated SEAP production is assessed by cultivating CHO-PEACE8 (100,000 cells/mL) for 144 h while alternating phloretin concentrations from 0 to 50 μM every 48 h.

TtgA1 (TtgR-VP16), sequence (Q9AIU0 whole entry, added parts left off): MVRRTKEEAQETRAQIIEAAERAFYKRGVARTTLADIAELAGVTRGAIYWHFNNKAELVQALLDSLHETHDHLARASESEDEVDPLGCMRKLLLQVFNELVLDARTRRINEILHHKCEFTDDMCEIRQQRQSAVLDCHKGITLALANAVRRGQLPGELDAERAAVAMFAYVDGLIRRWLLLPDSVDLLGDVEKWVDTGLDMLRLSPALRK
T1 sequence (P04483 whole entry, added parts left off): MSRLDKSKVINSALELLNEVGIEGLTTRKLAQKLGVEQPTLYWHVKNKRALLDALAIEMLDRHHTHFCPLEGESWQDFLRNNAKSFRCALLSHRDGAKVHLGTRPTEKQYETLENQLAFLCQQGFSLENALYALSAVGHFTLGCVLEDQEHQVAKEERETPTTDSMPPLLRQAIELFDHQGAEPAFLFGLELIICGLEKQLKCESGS

O=C(CCc1ccc(O)cc1)c1c(O)cc(O)cc1O [phloretin, 3-[4-hydroxyphenyl]-1-[2,4,6-trihydroxyphenyl]-1-propanone]
impact on heterologous protein (SEAP) production (CHO-K1; CHO-K1 constitutive SEAP (pSEAP2-Control), phloretin 0, 25, 50, 75, 100 μM): no negative impact on heterologous protein production | viable cell density / CHO-K1 proliferation (CHO-K1; phloretin up to 100 μM): does not compromise CHO-K1 proliferation | Relative SAMY Production (%) [1]: 98.1 ± 2.8% | Relative SEAP Production (%) (TtgA1 (TtgR-VP16); CHO-PEACE8 transiently transfected with macrolide-responsive control system, EM 2 μg/mL): 2.0 ± 1.2% | Relative SEAP Production (%) (TtgA1 (TtgR-VP16); CHO-PEACE8 transiently transfected with tetracycline-responsive control system, Tet 2 μg/mL): 2.2 ± 0.2%
